Data as given in publication PMC5131319, “Occurrence, temporal trends, and half-lives of perfluoroalkyl acids (PFAAs) in occupational workers in China” (Scientific Reports, 2016).
Values joined by “and” are separate entries in the source; they are usually repeats but may differ in a detail not shown here. Identical values can stand only once. Like-named read-outs stand apart in the source and are kept apart here.

How the values were obtained:
[1] = cited from earlier work
[2] = cited from earlier work; remark: listed apart in the source
[3] = PFAA concentration in morning urine of occupational workers (HPLC-ESI/MS/MS); format: in vivo, human; conditions: for Urine PFOS concentration: individual workers
Procedure: (§1) The selected fluorochemical plant (Henxin Chemical Plant) in this study is one of the largest producers of PFOS-related chemicals in China and is located in Yingcheng, Hubei province. Perfluoroalkyl sulfonic acids (PFSAs) and perfluorotertiary amines are synthesized through an electro-chemical fluorination (ECF) process. We collected paired serum and urine samples from the occupational workers in the plant for five consecutive years, and the sampling activities were carried out in Nov. 2008, Nov. 2009, Nov. 2010, Dec. 2011, and Dec 2012, respectively. The Medical Research Ethics Committee, School of Medicine, Jianghan University, approved the ethics of this study, and all methods were performed in accordance with the relevant guidelines and regulations, moreover, all volunteers gave written informed consent. Demographic information of the donors, including gender, age, length of service, and work assignment, was collected with a questionnaire (Table S1). The sampled population included a total of 302 occupational workers, of which there were 89 female and 213 male participants. In total, 302 serum and 274 urine samples were collected.
(§2) The participants were told not to eat breakfast before the sampling, and morning urine samples and blood samples were collected. Serum was separated from the blood by centrifugation at 1100 × g at 4 °C for 10 min and then placed on ice. Serum samples were then transferred to our laboratory on the same day and stored in polypropylene containers at −20 °C until analysis.
(§3) All pre-treatment methods and instrument analysis of PFAAs in serum and urine samples are based on previous studies with minor modifications (see Supplementary Information)[3][31]. Based on the PFAA profiles in environmental matrices around the same plant in our previous study, only 3 main PFAAs, PFHxS, PFOA, and PFOS, were analyzed in the obtained serum and urine samples. Instrumental analysis of the PFAAs was performed by a HPLC-ESI/MS/MS system (HPLC: Waters 2695, MS: Waters Quattro Premier XE). The limits of detection (LODs) of PFHxS, PFOA, and PFOS were 0.020, 0.063, and 0.018 ng mL^−1 for serum samples and 0.008, 0.025, and 0.007 ng mL^−1 for urine samples, respectively. A procedural blank was performed for every batch of seven samples, and all of the blank levels were below the LODs. […] Details of quality assurance and quality control of the chemical analysis can be found in the Supplementary Information.
Urine samples were pretreated by solid phase extraction. Briefly, 1 mL of urine spiked with 5 ng of internal standard was added to a 15 - mL PP tube and diluted with 13 mL water. The solid phase extraction procedure was then performed following the previously described serum extraction procedure.

[4] = set-up: method as in PMID 23980546, PMID 12499116, PMID 20236705; conditions: set value; cited from earlier work
[5] = Half-life estimated by annual decline rates of serum PFAAs (first-order model); format: in vivo, human
Excerpt: Olsen et al.[21] found linear relationship between the logarithm of serum PFAAs concentration and time, and a first order model was adopted to estimate the half-lives of PFAAs. The elimination of PFAAs in humans was also described with the following equation: […]
If we set C(t) as 1/2C0, then the half-life
where k is the elimination rate constant. We calculated k using two approaches in the present study. In the first approach, k is defined as Cltotal/Vd, where Vd stands for the volume of distribution of PFAAs in the human body. Cltotal represents the total daily PFAAs clearance in the human body; for men and women older than 50, it refers to renal clearance, while for young women, it is defined as the sum of menstrual clearance and renal clearance. To keep consistency with other studies, Vd of PFOS and PFHxS were set at 230 mL kg^−1, and Vd of PFOA was set at 170 mL kg^−1 in this study. In the second approach, k is defined as the average annual decline rates of PFAAs in workers who participated in this study.
Serum PFAAs of workers were sequentially measured for 5 years, and they fluctuated during our sampling period, although different serum PFAAs decreased in certain years. […] For PFOA, 31 out of 42 workers decreased in the period of 2011–2012, and the serum PFOA concentration dropped by 41%. […] We assumed that there were no new inputs of PFAAs in these workers, and thus k in Eq (2) was set as the average annual serum PFAA decline rate. The half-lives of PFHxS, PFOA, and PFOS estimated by Eq (2) were 3.6, 1.7, and 1.9 years.

[6] = PFAA concentration in serum of occupational workers (HPLC-ESI/MS/MS); format: in vivo, human; set-up: Serum PFAA level: unit: ng/mL
Procedure: as §1, §2, §3

[7] = Fabric finishing agent department, N 8

O=S(=O)(O)C(F)(F)C(F)(F)C(F)(F)C(F)(F)C(F)(F)C(F)(F)C(F)(F)C(F)(F)F [PFOS, perfluorooctanesulfonate]
Serum concentration in 85 percent of the sampled Chinese population ([1]; general population): less than 100 ng mL^−1 | Serum concentration, median ([1]; workers in another fluorochemical plant in China): 33.5 ng/mL | Serum concentration, geometric mean ([1]; workers of the 3 M Company): 910 ng/mL | Clrenal values obtained from different sources, range [2]: 0.01 to 0.1 mL/day/kg | Clrenal, median ([2]; fishery employees from Tangxun Lake): 0.010 mL/day/kg | Urine concentration, mean ([3]; All workers, N 274): 4.4 ng/mL | Urine concentration, median ([3]; All workers, N 274): 1.2 ng/mL | Urine concentration, mean ([3]; Electrolytic department, N 67): 1.8 ng/mL | Urine concentration, median ([3]; Electrolytic department, N 67): 0.93 ng/mL | Urine concentration, mean [3, 7]: 0.39 ng/mL | Urine concentration, median [3, 7]: LOD | Urine concentration, mean ([3]; Management office, N 76): 1.6 ng/mL | Urine concentration, median ([3]; Management office, N 76): 0.49 ng/mL | Urine concentration, mean ([3]; Research building, N 25): 1.4 ng/mL | Urine concentration, median ([3]; Research building, N 25): 1.1 ng/mL | Urine concentration, mean ([3]; Sulfonation department, N 98): 8.8 ng/mL | Urine concentration, median ([3]; Sulfonation department, N 98): 3.0 ng/mL | Urine PFOS concentration ([3]; sampling year 2008): 0.918 ng/mL and 7.8 ng/mL and 7.66 ng/mL and 0.697 ng/mL and 0.425 ng/mL and 17.2 ng/mL and 3.94 ng/mL and 2.12 ng/mL and 0.736 ng/mL and 0.943 ng/mL and 2.18 ng/mL and 0.818 ng/mL and 0.217 ng/mL and 0.819 ng/mL and 0.291 ng/mL and 4.7 ng/mL and 7.69 ng/mL and 3.07 ng/mL and 0.465 ng/mL and 22.5 ng/mL and 3.09 ng/mL | Urine PFOS concentration ([3]; sampling year 2009): 0.361 ng/mL and 7.85 ng/mL and 2.17 ng/mL and 1.4 ng/mL and 0.831 ng/mL and 1.51 ng/mL and 0.198 ng/mL and 2.73 ng/mL and 0.47 ng/mL and 0.288 ng/mL and 0.078 ng/mL and 0.206 ng/mL and 0.094 ng/mL and 0.171 ng/mL and 0.84 ng/mL and 1.33 ng/mL and 0.14 ng/mL and 1.86 ng/mL and 2.58 ng/mL and 1.8 ng/mL | Urine PFOS concentration ([3]; sampling year 2010): 1.14 ng/mL and 0.258 ng/mL and 0.177 ng/mL and 64.2 ng/mL and 0.884 ng/mL and 0.714 ng/mL and 0.912 ng/mL and 0.855 ng/mL and 2.44 ng/mL and 0.39 ng/mL and 3.98 ng/mL and 0.314 ng/mL and 0.409 ng/mL and 1.98 ng/mL and 0.139 ng/mL and 14 ng/mL and 14.2 ng/mL and 7.14 ng/mL and 3.93 ng/mL | Urine PFOS concentration ([3]; sampling year 2011): 0.14 ng/mL and 0.17 ng/mL and 0.47 ng/mL and 49.90 ng/mL and 2.18 ng/mL and 0.43 ng/mL and 0.54 ng/mL and 5.08 ng/mL and 0.52 ng/mL and 0.29 ng/mL and 0.75 ng/mL and 0.51 ng/mL and 0.04 ng/mL and 0.70 ng/mL and 0.74 ng/mL and 1.78 ng/mL and 14.70 ng/mL and 7.74 ng/mL and 4.91 ng/mL and 2.24 ng/mL | Urine PFOS concentration ([3]; sampling year 2012): 0.7 ng/mL and 26.46 ng/mL and 0.46 ng/mL and 1.62 ng/mL and 0.22 ng/mL and 0.44 ng/mL and 0.58 ng/mL and 0.18 ng/mL and 0.5 ng/mL and 0.78 ng/mL and 0.1 ng/mL and 1.64 ng/mL and 0.06 ng/mL and 0.26 ng/mL and 0.12 ng/mL and 0.42 ng/mL and 7.26 ng/mL and 7.8 ng/mL and 9.72 ng/mL and 5.64 ng/mL | Vd (volume of distribution in the human body) [4]: 230 mL/kg | Average annual decline rate of serum concentration ([5]; 2008 to 2009, 36 workers): 37% | Half-life estimated by annual decline rates ([5]; k = average annual serum decline rate, no new inputs assumed, two time points): 1.9 years | Serum concentration, GM ([6]; 46 workers sampled at least three times, 2008): 1751 ng/mL | Serum concentration, GM ([6]; 46 workers sampled at least three times, 2009): 1095 ng/mL | Serum concentration, GM ([6]; 46 workers sampled at least three times, 2012): 2580 ng/mL | Serum concentration, mean ([6]; All workers, N 302): 5624 ng/mL | Serum concentration, range ([6]; All workers, N 302): 50.3 to 118000 ng/mL | Serum PFAA level ([6]; Electrolytic Department, length of service 1-3 years): 1827 | Serum PFAA level ([6]; Electrolytic Department, length of service < 1 year): 772 | Serum PFAA level ([6]; Electrolytic Department, length of service >3 years): 1393 | Serum concentration, mean ([6]; Electrolytic department, N 74): 1909 ng/mL | Serum concentration, median ([6]; Electrolytic department, N 74): 1541 ng/mL | Serum concentration, range ([6]; Electrolytic department, N 74): 234 to 8501 ng/mL | Serum concentration, mean [6, 7]: 514 ng/mL | Serum concentration, median [6, 7]: 267 ng/mL | Serum concentration, range [6, 7]: 103 to 1890 ng/mL | Serum PFAA level ([6]; Management Office, length of service 1-3 years): 641 | Serum PFAA level ([6]; Management Office, length of service < 1 year): 140 | Serum PFAA level ([6]; Management Office, length of service >3 years): 728 | Serum concentration, mean ([6]; Management office, N 92): 1144 ng/mL | Serum concentration, median ([6]; Management office, N 92): 616 ng/mL | Serum concentration, range ([6]; Management office, N 92): 50.3 to 7910 ng/mL | Serum PFAA level ([6]; Research Building, length of service 1-3 years): 888 | Serum PFAA level ([6]; Research Building, length of service < 1 year): 318 | Serum PFAA level ([6]; Research Building, length of service >3 years): 890 | Serum concentration, mean ([6]; Research building, N 27): 1195 ng/mL | Serum concentration, median ([6]; Research building, N 27): 736 ng/mL | Serum concentration, range ([6]; Research building, N 27): 101 to 7450 ng/mL | Serum PFAA level ([6]; Sulfonation Department, length of service 1-3 years): 5463 | Serum PFAA level ([6]; Sulfonation Department, length of service < 1 year): 5174 | Serum PFAA level ([6]; Sulfonation Department, length of service >3 years): 7756 | Serum concentration, mean ([6]; Sulfonation department, N 101): 14002 ng/mL | Serum concentration, median ([6]; Sulfonation department, N 101): 5544 ng/mL | Serum concentration, range ([6]; Sulfonation department, N 101): 416 to 118000 ng/mL | Serum concentration, geometric mean ([6]; all occupational workers): 1677 ng/mL | Average serum concentration (Average ± SD) ([6]; female workers, n 89): 2,221 ± 4,791 ng mL^−1 | Average serum concentration (Average ± SD) ([6]; male workers, n 213): 7,040 ± 15382 ng mL^−1 | Serum concentration below which 85 percent of the population lies ([6]; present study, workers): 6775 ng/mL | Serum PFOS concentration ([6]; serum, sampling year 2008, individual occupational workers): 853 ng/mL and 83 ng/mL and 463 ng/mL and 635 ng/mL and 357 ng/mL and 25000 ng/mL and 4570 ng/mL and 4540 ng/mL and 460 ng/mL and 3220 ng/mL and 4170 ng/mL and 3160 ng/mL and 2690 ng/mL and 650 ng/mL and 620 ng/mL and 250 ng/mL and 3580 ng/mL and 3030 ng/mL and 1770 ng/mL and 5220 ng/mL and 1970 ng/mL and 3940 ng/mL and 2600 ng/mL and 8430 ng/mL and 7450 ng/mL and 3800 ng/mL and 1450 ng/mL and 1280 ng/mL | Serum concentration, GM ([6]; workers with service length 1–3 years): 1861 ng/mL | Serum concentration, GM ([6]; workers with service length less than 1 year): 782 ng/mL | Serum concentration, GM ([6]; workers with service length more than 3 years): 1876 ng/mL
